The results in this text go back to PubChem BioAssay (NCI).

Some test systems named below: ACHN renal; CAKI-1 renal; CCRF-CEM leukemia; HOP-62 NSCLC; HOP-92 NSCLC; HT29 colon; IGROV1 ovarian; K-562 leukemia; MDA-MB-435; NCI-H522 lung; NCI/ADR-RES ovarian; OVCAR-3 ovarian; SF-268 CNS; SK-OV-3 ovarian; T-47D breast; U251 CNS; HL-60(TB) leukemia.
What all share (assay): NCI-60 cell line screen, 48 h

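Five concentrations, 48 hours, 96-well plates. TGI denotes the concentration required for complete inhibition of growth.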

On to `COc1cc(Nc2cc(Cl)cc(Cl)c2)nc(N)n1`, for which the TGI came to 37.4 µM with ACHN renal; 42.8 µM in the experiment with CAKI-1 renal; 43.3 µM in the experiment with CCRF-CEM leukemia; 36.6 µM in the experiment on HOP-62 NSCLC; 32.1 µM in the experiment on HOP-92 NSCLC; 33.2 µM in the experiment on HT29 colon. Besides, the TGI was 44.2 µM in the experiment on IGROV1 ovarian; more than 100 µM in the experiment with K-562 leukemia; 75.8 µM in the experiment with MDA-MB-435; 35.9 µM with NCI-H522 lung; 45.4 µM with NCI/ADR-RES ovarian; 41.1 µM in the experiment on OVCAR-3 ovarian. Moreover, the TGI in the experiment with SF-268 CNS turned out to be 41.3 µM; with SK-OV-3 ovarian it was 64.5 µM; with T-47D breast it was 92.5 µM; in the experiment on U251 CNS, 41.2 µM.
In the case of `O=C1/C(=C/c2ccc(Br)s2)NC(=S)N1CN1CCCCC1`, the TGI in the experiment on ACHN renal was more than 100 µM; with CAKI-1 renal, 59.2 µM; in the experiment with HL-60(TB) leukemia, 50 µM; in the experiment on HOP-62 NSCLC, more than 100 µM; in the experiment on HT29 colon, more than 100 µM; with IGROV1 ovarian, more than 100 µM. For the same molecule, the TGI in the experiment with K-562 leukemia is 59.8 µM; in the experiment with MDA-MB-435, more than 100 µM; with NCI-H522 lung, 83.1 µM; in the experiment with NCI/ADR-RES ovarian, 98.2 µM; in the experiment with OVCAR-3 ovarian it was 59.6 µM; in the experiment with SF-268 CNS, more than 100 µM. Besides, the TGI in the experiment with T-47D breast and in the experiment with U251 CNS was more than 100 µM each time.
With `CN(Cc1cccc2ccsc12)/N=C\c1ccc(Cl)cc1`, the TGI in the experiment on ACHN renal, in the experiment on CAKI-1 renal, in the experiment on CCRF-CEM leukemia, in the experiment with HOP-62 NSCLC, in the experiment with HOP-92 NSCLC and in the experiment with HT29 colon was more than 100 µM throughout. In addition, the TGI in the experiment with IGROV1 ovarian is more than 100 µM; with K-562 leukemia, more than 100 µM; in the experiment with MDA-MB-435, more than 100 µM; in the experiment with NCI-H522 lung, more than 100 µM; with NCI/ADR-RES ovarian it was more than 100 µM; in the experiment with OVCAR-3 ovarian, 48.3 µM. For the same molecule, the TGI in the experiment with SF-268 CNS, with SK-OV-3 ovarian, with T-47D breast and with U251 CNS was more than 100 µM in each case.
Consider `CCOC(=O)c1nc2ccc(C(F)(F)F)cc2nc1Oc1ccc(OC)cc1`, for which the TGI in the experiment on ACHN renal, in the experiment on CAKI-1 renal, with CCRF-CEM leukemia, with HOP-62 NSCLC, in the experiment on HOP-92 NSCLC and with HT29 colon was more than 100 µM each time. Moreover, the TGI with IGROV1 ovarian, in the experiment with K-562 leukemia, in the experiment on MDA-MB-435, in the experiment on NCI/ADR-RES ovarian, in the experiment on OVCAR-3 ovarian and in the experiment with SF-268 CNS was more than 100 µM each time. For the same molecule, the TGI in the experiment on SK-OV-3 ovarian, in the experiment on T-47D breast and in the experiment with U251 CNS was more than 100 µM in each case.
With `Nc1nccc(NCC2(CO)CC(CCc3ccccc3)C2)n1` (stereo not given), the TGI in the experiment on ACHN renal turned out to be 32.6 µM; in the experiment on CAKI-1 renal, 28.6 µM; with CCRF-CEM leukemia, 55.5 µM; in the experiment on HL-60(TB) leukemia, 34.4 µM; in the experiment on HOP-62 NSCLC, 38 µM; with HT29 colon, 23.9 µM. Also, the TGI with IGROV1 ovarian turned out to be 33.3 µM; with K-562 leukemia, 45.5 µM; with MDA-MB-435, 28.7 µM; in the experiment on NCI-H522 lung, 26 µM; in the experiment with NCI/ADR-RES ovarian, 75.7 µM; in the experiment with OVCAR-3 ovarian it was 38.9 µM. In addition, the TGI in the experiment with T-47D breast came out at 27.6 µM; with U251 CNS it was 28.7 µM.
Take `c1ccc(C(NC2=NCCO2)C2CC2)cc1` (stereo not given): the TGI in the experiment with ACHN renal, in the experiment with HOP-62 NSCLC, with HOP-92 NSCLC, with HT29 colon, with IGROV1 ovarian and in the experiment with MDA-MB-435 was more than 100 µM each time. Further, the TGI with NCI-H522 lung, in the experiment on NCI/ADR-RES ovarian, in the experiment on OVCAR-3 ovarian, with SF-268 CNS, with SK-OV-3 ovarian and with T-47D breast was more than 100 µM in each case. Besides, the TGI in the experiment with U251 CNS was more than 100 µM.
For the molecule `COC(=O)/C=C1\C(CO[Si](C)(C)C(C)(C)C)OC(n2ccc(=O)[nH]c2=O)C1O` (stereo not given), the TGI in the experiment with ACHN renal was more than 65.5 µM; in the experiment on CAKI-1 renal it was more than 100 µM; with CCRF-CEM leukemia it was 26.1 µM; with HOP-62 NSCLC, more than 31.1 µM; with HOP-92 NSCLC, 44 µM; with HT29 colon, 80.5 µM. Moreover, the TGI with IGROV1 ovarian is more than 75.2 µM; with K-562 leukemia, more than 95.4 µM; in the experiment with MDA-MB-435 it was more than 43 µM; in the experiment on NCI/ADR-RES ovarian, 38.4 µM; in the experiment with OVCAR-3 ovarian, 54.5 µM; in the experiment with SF-268 CNS, 2.39 µM. Besides, the TGI in the experiment with T-47D breast is more than 22.3 µM; with U251 CNS, more than 87.3 µM.
For the molecule `CCOC(=O)c1cn(-c2ccc([N+](=O)[O-])cc2)c(=S)n2c1nc1ccccc12`, the TGI in the experiment on ACHN renal was more than 100 µM; in the experiment on CAKI-1 renal it was more than 100 µM; with CCRF-CEM leukemia, more than 100 µM; in the experiment with HOP-62 NSCLC, more than 100 µM; with HOP-92 NSCLC, 57.1 µM; in the experiment with HT29 colon, more than 100 µM. Further, the TGI in the experiment with IGROV1 ovarian, in the experiment with K-562 leukemia, in the experiment with MDA-MB-435, with NCI/ADR-RES ovarian, in the experiment on OVCAR-3 ovarian and in the experiment on T-47D breast was more than 100 µM throughout. Besides, the TGI with U251 CNS was more than 100 µM.
Regarding `CCN(C(=O)N[C@@H](CC(C)C)C(=O)NCC(=O)OC)c1ccccc1`, the TGI in the experiment on ACHN renal, with CAKI-1 renal, with CCRF-CEM leukemia, in the experiment on HOP-62 NSCLC, in the experiment with HOP-92 NSCLC and in the experiment on HT29 colon was more than 100 µM throughout. Further, the TGI in the experiment on IGROV1 ovarian, with K-562 leukemia, with MDA-MB-435, with NCI-H522 lung, in the experiment with NCI/ADR-RES ovarian and with OVCAR-3 ovarian was more than 100 µM each time. Further, the TGI with SK-OV-3 ovarian, in the experiment on T-47D breast and in the experiment with U251 CNS was more than 100 µM in each case.
